We go through 16 compounds from BindingDB's records for patent US9694016 (Novartis AG, 2017).

pIC50: −log10 of the molar value.

Chain of RAF proto-oncogene serine/threonine-protein kinase [Y340E,Y341E] (P04049 whole entry Y340E/Y341E): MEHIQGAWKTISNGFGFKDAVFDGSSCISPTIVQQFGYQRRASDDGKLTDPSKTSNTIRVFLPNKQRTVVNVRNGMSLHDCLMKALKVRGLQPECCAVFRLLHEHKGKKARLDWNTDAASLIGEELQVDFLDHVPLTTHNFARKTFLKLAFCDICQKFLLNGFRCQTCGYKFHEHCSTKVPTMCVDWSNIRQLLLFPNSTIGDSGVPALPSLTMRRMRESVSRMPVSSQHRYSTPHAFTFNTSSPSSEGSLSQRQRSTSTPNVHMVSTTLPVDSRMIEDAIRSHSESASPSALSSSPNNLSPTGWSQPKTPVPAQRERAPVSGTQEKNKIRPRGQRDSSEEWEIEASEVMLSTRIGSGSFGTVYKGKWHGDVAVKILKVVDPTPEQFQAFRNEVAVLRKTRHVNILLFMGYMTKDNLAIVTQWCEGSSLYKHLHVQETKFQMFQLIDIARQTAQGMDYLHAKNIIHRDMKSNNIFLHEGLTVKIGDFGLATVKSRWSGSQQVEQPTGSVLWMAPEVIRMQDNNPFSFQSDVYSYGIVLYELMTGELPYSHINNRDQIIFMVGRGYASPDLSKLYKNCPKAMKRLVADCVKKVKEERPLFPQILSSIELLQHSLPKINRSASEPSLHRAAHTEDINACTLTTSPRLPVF

This experiment addresses RAF proto-oncogene serine/threonine-protein kinase [Y340E,Y341E] (Human, UniProt P04049, Y340E/Y341E). Nature of the experiment: Raf Activity Assay. As to conditions: pH 7.5; 25 °C.
Procedure: The plate was incubated for 60 minutes at room temperature. The Raf kinase activity reaction was started by the addition of 5 mL per well of 2xATP diluted in assay buffer. […] The additions were carried out under dark conditions to protect the detection beads from light. A lid was placed on top of the plate and incubated for 1 hour at room temperature, then the luminescence was read on a PerkinElmer Envision instrument.
One may read the pIC50 as the IC50 on a negative log10 scale, so that one unit is a factor of ten. Higher therefore signals a small IC50. On to `Cc1ncc(NC(=O)c2ccnc(C(C)(C)C#N)c2)cc1-c1cnc(OC(F)F)c(N2CCOCC2)c1` [US9694016, 225], for which the negative-log IC50 (pIC50) is 8.41.
`Cc1ncc(NC(=O)c2ccnc(C(C)(F)F)c2)cc1-c1cnc(C#N)c(N2CCOCC2)c1` [US9694016, 250] gave a pIC50 of 9.10.
With `Cc1ncc(NC(=O)c2cc(CN(C)C)cc(C(F)(F)F)c2)cc1-c1cc(N2CCOCC2)c(=O)n(C)c1` [US9694016, 401] the figure was 7.92; with `Cn1cc(-c2cc(NC(=O)c3ccnc(C(C)(F)F)c3)ccc2C#N)cc(N2CCOCC2)c1=O` [US9694016, 416], 6.70.
For `Cc1ncc(NC(=O)c2ccnc(C(C)(F)F)c2)cc1-c1cc(N2CCOC[C@@H]2C)n(C)c(=O)c1` [US9694016, 526], the pIC50 was 8.03. Against the preceding compound, the pIC50 is 1.33 log units higher.
With `CCOc1nnc(-c2cc(NC(=O)c3ccnc(C(F)(F)F)c3)ccc2C)cc1N1CCOCC1` [US9694016, 566], the pIC50 was 9.70. Compared with the last compound, the pIC50 is 1.67 log units higher.
With `COc1nnc(-c2cc(NC(=O)c3ccnc(C(C)(C)F)c3)cnc2C)cc1N1CCOCC1` [US9694016, 608] the figure was 8.70; with `CCOc1nnc(-c2cc(NC(=O)c3cccc(C(F)F)c3)cnc2C)cc1N1CCOCC1` [US9694016, 619], 9.30.
With `Cc1ncc(NC(=O)c2cnnc(C(C)(C)C#N)c2)cc1-c1cc(N2CCOCC2)c(OC2CCOCC2)nn1` [US9694016, 635] the figure was 8.18; with `Cc1ccc(NC(=O)c2ccnc(C3CC3)c2)cc1-c1cc(N2CCOCC2)c(=O)n(C)n1` [US9694016, 656], 9.52.
`CCNc1nc(-c2cc(NC(=O)c3cccc(S(C)(=O)=O)c3)ccc2C)cc(N2CCOCC2)n1` [US9694016, 704] gave a pIC50 of 10.10.
The figure for `CCNc1nc(-c2cc(NC(=O)c3ccnc(C(C)(F)F)c3)cnc2C)cc(N2CCOCC2)n1` [US9694016, 725] is 8.92; for `CCOc1nc(-c2cc(NC(=O)c3ccnc(C(C)C)c3)ccc2C)cc(N2CCOCC2)n1` [US9694016, 763] it is 9.70; for `Cc1ccc(NC(=O)c2ccnc(C(C)(C)C#N)c2)cc1-c1cc(N2CCOCC2)nc(OC2CNC2)n1` [US9694016, 777] it is 10.10.
With `CNC(=O)C1CN(c2cc(-c3cc(NC(=O)c4cccc(C(F)(F)F)c4)cnc3C)nn3ccnc23)CCO1` (stereo unspecified) [US9694016, 874] the figure was 8.47; with `Cc1ncc(NC(=O)c2ccnc(C3(C#N)CC3)c2)cc1-c1cnc(OC2CCOCC2)c(N2CCOCC2)c1` [US9694016, 940], 8.88.
